In publication PMC9681850, “Structural basis of synthetic agonist activation of the nuclear receptor REV-ERB” (Nature Communications, 2022):

Experiment: tissue exposure following i.p. administration
Type: in vivo, C57Bl/6 J mice
Details: mice
Experimental: To test the efficacy of STL1267 in vivo, we began by assessing tissue exposure following i.p. administration. We administered vehicle or 50 mg/kg of STL1267 via intraperitoneal injection to C57Bl/6 J mice. The mice were sacrificed at four subsequent time points over the next 12 h.
All in vivo studies were performed using the ARRIVE guidelines and approved by the Washington University IACUC. C57Bl/6J mice (male; 6–8 weeks of age) maintained at 12:12 h light;dark, 22 °C, 40–60% humidity. Mice were injected IP with 50 mg/kg STL1267 (n = 3–4 per group) or vehicle (10% DMSO, 12% TWEEN80, PBS) (n = 3–4 per group). Mice were weighed immediately following the injection and were weighed again immediately after sacrifice. Mice were fasted started at the time of injection. For tissue collection, three STL1267-injected mice were sacrificed at 1 h post-injection, and three more were sacrificed at 3 h post-injection. At 8 h and 12 h post-injection, six mice from each treatment group were taken down and tissue was collected. The tissues collected at all four time points include plasma, white adipose tissue, brain, liver, and skeletal muscle (quadriceps). […] Analytes were extracted using protein precipitation techniques with acetonitrile and samples were then analyzed using a SCIEX Triple Quad 5500+ system – QTRAP ready linked to an ExionLC AD-HPLC system. […]

half-life (male, C57Bl/6J, mouse, plasma, ip, 50 mg/kg intraperitoneal injection): ~1.6 h
tissue distribution (brain, plasma, liver, skeletal muscle, white adipose tissue) (50 mg/kg i.p.): localized in all the tissues collected
SMILES: Clc1nnc2ccc(Oc3ccccc3-c3ccccc3)nn12 [STL1267]
